We go through seven molecules from patent publication US5451600A, “Substituted tetrahydrobenzopyrrolylfuranoic acid derivatives as phospholipase A2 inhibitors” (Hoffmann-La Roche Inc., priority 1994, dated 1995).

Where two headings read alike, the source gives them in different places.

Assay [1] relates to cellular PLA2. The experiment in a line: Inhibition of Cellular Phospholipase A2 (A23187-stimulated macrophages). Type of assay: cell-based. As to conditions: rat peritoneal macrophages, A-23187 stimulated. Here is the method:
II. Inhibition of Cellular Phospholipase A2. - % Inhibition of Cellular PLA2
Resident macrophages were obtained from rats by peritoneal lavage with phosphate buffered saline minus Ca2^++ and Mg2^++ (PBS). Cells were washed 3 times with PBS and resuspended in Dulbecco's Modified Eagle's Medium (GiBco) containing L-glutamine low D-glucose (1000 mg/L), and sodium pyruvate (110 mg/L), supplemented with 10% fetal calf serum. Cells were counted on a Coulter ZBI cell counter and then resuspended to a concentration of 6×10^6 cells/1.5 ml. The cell suspension (1.5 ml culture dishes (35 mm) and the cells were allowed to adhere to the dishes for 90 minutes at 37° C. Dishes were washed 3 times with PBS to remove non-adherent cells. [^14 C]arachidonic acid ([^14 C]-AA, approximately […], were added to the cells (1 uCi/dish) and allowed to incorporate for 120 minutes. Medium containing unincorporated [^14 C]-AA was removed and the cell layer was again washed 3 times with PBS. Inhibitors were dissolved in dimethylsulfoxide (DMSO) and added directly to the macrophages in Hank's Balanced Salt Solution (GiBco) phosphate-buffered, pH 7.4) to obtain the desired final concentration. Cells were incubated with drug or DMSO for 30 minutes at 37° C. and were then stimulated with calcium-ionophore A-23187 (0.75 uM) for 20 minutes. The extracellular medium was removed and the [^14 C] radioactivity released into this medium from AA metabolism was measured by liquid scintillation spectroscopy. The amounts of LTB4 and PGE2 were measured in the extracellular medium by radio immunoassay with specific antisera. The effects of inhibitor were measured as percent inhibition of A23187- stimulated AA metabolite release (^14 C release, PGE2 and LTB4 production) (control) which were calculated from the formula: [formula] IC50 's were calculated as described in the HSF-PLA2 assay.

Assay [2] deals with T1, PLA2 activity in human synovial fluid (HSF) (Homo sapiens, UniProt P14555).
T1 construct: Synovial fluid was obtained from patients with rheumatoid arthritis; from tissue; host or cells: cell-depleted synovial fluid of patients with rheumatoid arthritis
T1 sequence (P14555 21-144): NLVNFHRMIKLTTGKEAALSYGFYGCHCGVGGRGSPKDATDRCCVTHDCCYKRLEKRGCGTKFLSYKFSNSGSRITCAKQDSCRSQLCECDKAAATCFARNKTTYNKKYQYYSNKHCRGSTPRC
The assay can be described thus: Phospholipase A2 (PLA2) enzymatic assay - % Inhibition of HSF-PLA2. As to conditions: for inhibition at 5 µM: read-out: % Inhib. of HSF-PLA2 at 5 μM; for IC50: human synovial fluid PLA2, 30 min at 37° C., pH 7.3. The format is biochemical. An excerpt:
1, Phospholipase A2 (PLA2) enzymatic assay - % Inhibition of HSF-PLA2
PLA2 assay procedure described by Hope et al., Inflammation 14:543-559 (1.990) was utilized to measure the inhibitory activity of the invention (inhibitor) against PLA2 activity in human synovial fluid (HSF). Synovial fluid was obtained from patients with rheumatoid arthritis. The assay procedure measured the release of [1-^14 C]oleic acid from the sn-2 position of phospholipids in autoclaved Escherichia coli previously grown in media containing [1-^14 C]oleic acid. The standard assay reaction conditions included 1×10^9 Escherichia coil (10,000 dpm ^14 C), 0.15% (v/v) cell-depleted HSF, (which was equivalent to 66 μg protein/mL) 2 mM CaCl2, 150 mM NaCl, 50 mM sodium (N-[2-hydroxyethyl] piperazine-N'-[2-ethanesulfonate]) (HEPES) buffer (pH 7.3), 1% dimethyl sulfoxide (DMSO) and various concentrations of inhibitor in a total volume of 0.5 ml. Inhibitors were dissolved in DMSO and added. The reaction was initiated by addition of HSF, incubated for 30 min at 37° C. and then stopped by addition of 2.5 ml of chloroform/methanol (1:1.5, v/v). The total lipids were extracted by the method of Bligh, E. G., and Dyer, W. J, Can. J. Biochem. Physiol. 37:911-917 (1959) by the further addition of 0.5 mL of chloroform and 1 mL of water with mixing. The lipid extract was redissolved in chloroform/methanol (9:1, v/v) containing 10 ug of carrier oleic acid. The oleic acid was separated from phospholipids by thin layer chromatography using gel-impregnated glass fiber sheets (ITLC type SG sheets). The sheets were preactivated by heating at 110° C. for 30 min. The lipid extract was applied to the sheets and chromatographed for 6 minutes, using hexane/acetic acid (100:1, v/v). The positions on the sheet containing oleic acid and phospholipids were visualized by exposure to iodine vapor and located by comparison to standards. The oleic acid and phospholipid zones were cut from the sheets, shaken individually with 2 ml of ethanol/water (80:20, v/v) and 15 ml of Aquasol, then counted for [^14 C] radioactivity (dpm). PLA2 activity, expressed as percent hydrolysis, was calculated from the formula: [formula] and was corrected for nonenzymatic hydrolysis of the substrate. Percent inhibition due to the presence of drug was calculated from the formula: [formula]
When various concentrations of a Compound of Formula I were tested, the percent inhibition at each concentration was plotted as log concentration (abscissa) versus percent inhibition (ordinate) and the IC50 was determined from this plot.

Assay [3] deals with adjuvant-induced arthritis in male Lewis rats. The experiment in a line: Established adjuvant-induced arthritis test. Type of assay: in vivo, rat. As to conditions: day 28 minus day 21, vehicle value in parentheses. Here is the method: IV. Adjuvant-induced Arthritis
Male Lewis rats (120-140 g) received 0.1 mg myeobacterium brityricum (0.5% ow/v) heavy mineral oil containing 0.2% digitonin administered in the base of the tail and the resulting arthritis was allowed to develop for 21 days (Coffey and Salvador, 1981). The combinded volumes of both hind paws were measured using a water plethysmograph by immersion of the paws to the level of the lateral malleolus. The animals were divided into drug-treatedand vehicle (control) groups (six rats per group) with approximately equal volumes of both hind paws. On day 21, body weights were recorded and the i.p. or p.o. vehicle and drug were then administered daily for seven days. On day 28, the final day of the experiment, heparinized (0.2 units/100 μl) blood was also collected for measurement of plasma fibrinogen concentrations (Goodwin, 1961). The changes in paw volume and body weight were calculated as paw volume or body weight at day 28 minus paw volume or body weight at day 21. Values are reported as means ± S.E. for n=6. Plasma fibrinogen concentration was quantitated according to Goodwin et al. (1961) and is expressed in mg/dl. Statistical differences between measurement parameters of the drug-treated and control groups were determined using Students's t-test.

Assay [4] concerns carrageenan-induced paw edema in rats. The assay can be described thus: Carrageenan-induced paw edema model of inflammation. The format is in vivo. As to conditions: 2 hr, rat, read-out: Carrageenan ind. paw edema % Inhib. 2 hr; for inhibition in vivo at 100 mg/kg: 100 mg/Kg po; for inhibition in vivo at 3 mg/kg: 3 mg/Kg ip. A general note: Carrageenan injected into the paw causes an acute inflammation.

In assay [5] the test system is PLA2-induced rat paw edema (PLA2 purified from Naja naja snake venom). The assay can be described thus: PLA2-induced rat paw edema model of inflammation. The format is in vivo.

As usually defined, the IC50 is the concentration at which inhibition is half-maximal.

In the case of `CCCCCCCCC1CCCc2c1n(CCCCCCCC)c1ccc(Oc3ccc(C(=O)O)o3)cc21` (racemic) [Example 154, rac-5-[(1,2,3,4-tetrahydro-1,9-dioctyl-9H-dibenzo[b,d]pyrrol-6-yl)oxy]-2-furancarboxylic acid], in assay [1], the “% Inhib. of cellular PLA2 at 5 μM” value is on record as 78%. In addition, the inhibition at 5 µM in assay [2] came to 81%. Also, in assay [3] (30 mg/Kg po daily seven days), the “Change of body wt. (vehicle)” value is recorded as 10 g. Also, the inhibition in vivo at 30 mg/kg in assay [4] (30 mg/Kg ip) is 45%. Besides, in assay [4], the inhibition in vivo at 100 mg/kg is 49%.

Turning to `CCCCCCCCn1c2c(c3cc(/C=C/c4ccc(C(=O)O)o4)ccc31)CCCC2` [Example 43, (E)-5-[2-(1,2,3,4-tetrahydro-9-octyl-9H-dibenzo[b,d]pyrrol-6-yl)ethenyl]-2-furancarboxylic acid], the IC50 was determined as 0.5 µM in assay [1] and 6 µM in assay [2]. For the same molecule, in assay [2] (10 μM (footnote a), read-out: % Inhib. of HSF-PLA2 (a: % Inhibition at 10 μM)), the inhibition at 10 µM turned out to be 90%. For the same molecule, the “PLA2-ind. paw edema % Inhib 2 hr” value in assay [5] (50 mg/Kg ip) was 60%. The “Change of body wt. (vehicle)” value in assay [3] (10 mg/Kg ip daily seven days) and in assay [3] (100 mg/Kg po daily seven days) was 12 g in each case. Besides, the “Change of paw volume (vehicle)” value was -0.18 mL in assay [3] (10 mg/Kg ip daily seven days) and -0.29 mL in assay [3] (100 mg/Kg po daily seven days). Also, in assay [4] (50 mg/Kg ip), the inhibition in vivo at 50 mg/kg came to 40%. For the same molecule, in assay [4], the inhibition in vivo at 100 mg/kg worked out at 29%.

For the molecule `CCCCCCCCn1c2c(c3cc(/C=C/c4ccc(C(=O)O)o4)ccc31)CCCC2(C)C` [Example 44, (E)-5-[2-(1,2,3,4-tetrahydro-1,1-dimethyl-9-octyl-9H-dibenzo[b,d]pyrrol-6-yl)ethenyl]-2-furancarboxylic acid], in assay [1], the “% Inhib. of cellular PLA2 at 5 μM” value worked out at 62% and the IC50 was found to be 4 µM. In addition, in assay [2], the IC50 turned out to be 2.5 µM and the inhibition at 5 µM is 71%. In assay [5] (30 mg/Kg ip), the “PLA2-ind. paw edema % Inhib 2 hr” value is 71%. The “PLA2-ind. paw edema % Inhib 2 hr” value in assay [5] (100 mg/Kg po) is 27%. Also, in assay [3] (30 mg/Kg po daily seven days), the “Change of body wt. (vehicle)” value amounted to 5 g and the “Change of paw volume (vehicle)” value is listed as 0.68 mL. Further, the inhibition in vivo at 10 mg/kg in assay [4] (10 mg/Kg ip) was found to be 57%. Moreover, the inhibition in vivo at 100 mg/kg in assay [4] came to 36%.

For `CCCCCCCCn1c2c(c3cc(/C=C\c4ccc(C(=O)O)o4)ccc31)CCCC2` [Example 51, (Z)-5-[2-(1,2,3,4-tetrahydro-9-octyl-9H-dibenzo[b,d]pyrrol-6-yl)ethenyl]-2-furancarboxylic acid], in assay [1], the “% Inhib. of cellular PLA2 at 5 μM” value is given as 85% and the IC50 stood at 2 µM. In assay [2], half-maximal inhibition (IC50) required 4 µM and the inhibition at 5 µM is 67%. Further, in assay [3] (10 mg/Kg po daily seven days), the “Change of body wt. (vehicle)” value was found to be 6 g and the “Change of paw volume (vehicle)” value was determined as 0.71 mL. For the same molecule, in assay [4] (1 mg/Kg ip), the inhibition in vivo at 1 mg/kg stood at 70%. Further, the inhibition in vivo at 100 mg/kg in assay [4] was 72%.

Take `CCCCCCCCn1c2c(c3cc(/C=C\c4ccc(C(=O)O)o4)ccc31)CCCC2(C)C` [Example 52, (Z)-5-[2-(1,2,3,4-tetrahydro-1,1-dimethyl-9-octyl-9H-dibenzo[b,d]-pyrrol-6-yl)ethenyl]-2-furancarboxylic acid]: the “% Inhib. of cellular PLA2 at 5 μM” value in assay [1] was 66%. For the same molecule, in assay [2], the inhibition at 5 µM is 73%. In assay [3] (30 mg/Kg po daily seven days), the “Change of body wt. (vehicle)” value is 13 g and the “Change of paw volume (vehicle)” value turned out to be 0.66 mL. The inhibition in vivo at 10 mg/kg in assay [4] (10 mg/Kg ip) was 50%.

Consider `CCCCCCCCn1c2c(c3cc(Oc4ccc(C(=O)O)o4)ccc31)CCCC2` [Example 132, 5-[(1,2,3,4-tetrahydro-9-octyl-9H-dibenzo[b,d]pyrrol-6-yl)oxy]-2-furancarboxylic acid], for which, in assay [1], the “% Inhib. of cellular PLA2 at 5 μM” value worked out at 97% and inhibition was half-maximal at 1 µM (IC50). For the same molecule, in assay [2], the concentration for half-maximal inhibition (IC50) was 4 µM and the inhibition at 5 µM was 79%. Also, the “PLA2-ind. paw edema % Inhib 2 hr” value in assay [5] (100 mg/Kg po) is on record as 34%. Besides, in assay [3] (10 mg/Kg po daily seven days), the “Change of body wt. (vehicle)” value stood at 13 g and the “Change of paw volume (vehicle)” value worked out at 0.48 mL. Further, in assay [4], the inhibition in vivo at 3 mg/kg is 45% and the inhibition in vivo at 100 mg/kg came to 65%.

As for `CCCCCCCCn1c2c(c3cc(Cc4ccc(C(=O)O)o4)ccc31)CCCC2` [Example 160, 5-[(1,2,3,4-tetrahydro-9-octyl-9H-dibenzo[b,d]pyrrol-6-yl)methyl]-2-furancarboxylic acid], the “% Inhib. of cellular PLA2 at 5 μM” value in assay [1] is on record as 94%. In addition, the inhibition at 5 µM in assay [2] is 49%. Moreover, in assay [5] (30 mg/Kg ip), the “PLA2-ind. paw edema % Inhib 2 hr” value turned out to be 49%. Also, in assay [3] (30 mg/Kg po daily seven days), the “Change of body wt. (vehicle)” value was found to be 4 g and the “Change of paw volume (vehicle)” value was 0.47 mL. Also, the inhibition in vivo at 3 mg/kg in assay [4] was 46%. For the same molecule, the inhibition in vivo at 10 mg/kg in assay [4] (10 mg/Kg po) came out at 50%.
